{"source": "patent US20100048462A1", "about": "“TRUNCATED PTH PEPTIDES WITH A CYCLIC CONFORMATION” (Zealand Pharma A/S, priority 2006, published 2010)", "key": {"Saos-2 PTH1R": {"target": "T1, Saos-2 PTH1R (Homo sapiens, UniProt Q03431)", "T1 construct": "endogenous in cells; host or cells: Saos-2", "T1 sequence (Q03431 27-593)": "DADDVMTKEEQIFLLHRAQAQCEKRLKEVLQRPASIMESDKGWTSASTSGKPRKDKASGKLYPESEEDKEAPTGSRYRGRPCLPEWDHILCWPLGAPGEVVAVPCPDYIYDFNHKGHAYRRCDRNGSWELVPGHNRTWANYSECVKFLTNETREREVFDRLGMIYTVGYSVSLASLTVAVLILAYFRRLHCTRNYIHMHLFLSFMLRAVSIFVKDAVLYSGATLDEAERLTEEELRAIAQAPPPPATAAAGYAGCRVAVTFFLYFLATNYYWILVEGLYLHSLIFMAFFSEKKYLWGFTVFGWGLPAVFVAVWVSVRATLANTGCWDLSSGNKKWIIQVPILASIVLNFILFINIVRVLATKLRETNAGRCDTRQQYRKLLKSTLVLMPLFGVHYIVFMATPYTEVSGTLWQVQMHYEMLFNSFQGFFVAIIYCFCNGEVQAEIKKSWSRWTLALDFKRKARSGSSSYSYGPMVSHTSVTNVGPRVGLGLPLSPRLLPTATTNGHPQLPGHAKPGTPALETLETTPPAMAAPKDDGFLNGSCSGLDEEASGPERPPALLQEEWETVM", "assay": "cAMP-efficacy assay in Saos-2 cells", "format": "cell-based", "conditions": "for Emax ± SEM: relative effect to the control (SEQ ID NO: 32)", "how_it_was_run": "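cAMP accumulation was assayed by FlashPlate after 15 min peptide stimulation at 37 °C of Saos-2 cells in Tyrode's buffer containing 100 μM IBMX and 0.1% BSA, with the reaction stopped by ice-cold HCl. Variable-slope logistic fitting gave EC50/pEC50, Hill coefficient and Emax, with single or triplicate points.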"}, "ovariectomized (OVX) rat": {"test_system": "ovariectomized (OVX) rat", "assay": "OVX rat model, bone strength measurements", "format": "in vivo", "conditions": "for bone strength of the femoral head in a compression test: FIG. 10; for bone strength of the femoral head in a compression test / bone strength of the femur in a three-point bending test versus vehicle-treated OVX animals: all doses; for bone strength of the femur, shaft region and femoral head region, versus vehicle-treated OVX-group: FIGS. 10 and 11", "description": "One hundred and seventy-eight female Fisher rats were used for the experiment. Initially the animals were housed in Macrolon type 3 cages (2 rats/cage) under controlled conditions (20° C., 55-85% humidity) following a 12:12-hrs light/dark cycle with light on at 6 am. The animals were fed ad libitum with standard Altromin No. 1324 diet (Chr. Petersen, Ringsted, Denmark). The animals had free access to drinking water (domestic quality tap water added citric acid to pH≈3). At the time of inclusion the animals were 6 months old.\nThe week before OVX the animals were stratified according to body weight into two groups that were subjected to either OVX (140 animals) or sham operation (38 animals). Rats were anaesthetized with Hypnorm-Dormicum and the ovariectomy was performed through a midline laparotomy. Sham-operated animals were subjected to midline laparotomy, and the ovaries were exposed but not removed (sham). This group served as an age matched non-osteoporotic control group. A microchip was implanted into each rat during surgery, in order to allow identification of the animals.\nTo allow osteopenia to develop before treatment start, animals were housed for 7 weeks (pre-treatment period) without pharmacological treatment. At the end of the pre-treatment period, sham- and OVX-operated rats were stratified according to bodyweight and divided into six groups of 13-20 animals each (Table 7). At this point, one OVX group (N=20) and one sham group (N=20) were sacrificed. These control groups established baseline levels of bone mineral density (BMD). Furthermore, samples were stored for possible later analysis of bone markers, bone strength, histomorphometry and μCT scans.\nFor the following 6 weeks one sham group and one OVX group were subjected to vehicle administration (40 mM sodium acetate, 45 mM histidine and 3.9% mannitol, pH 5.5, 300 mOsm/kg). Five OVX groups were treated with increasing doses of the cyclic PTH(1-17) analogue SEQ ID NO: 19. Another OVX group was treated with SEQ ID NO: 33 (Table 7). All drugs were given as s.c. injections. After 6 weeks of treatment the animals were sacrificed. Spine, tibia and femur were collected for analysis of BMD by DEXA-scan and bone samples were stored for later bone strength measurements.\nLumbar vertebrae (L4-L5-L6-S1), left femur and tibia were collected, cleaned, packed in saline moistened gaze in a tube and stored at −20° C. for later ex vivo bone strength measurements. Right femur and tibia as well as lumbar vertebrae (T13-L1-L2-L3) and caudal vertebrae (S2-S3-C1-C2-C3) were collected, cleaned and stored in 70% ethanol for analysis of bone mineral density (BMD) and possible later histomorphometry and/or μCT scanning.\nBone strength measurements were performed on a compression device (Lloyd Instruments, Fareham, UK). Bones were positioned with the help of custom-made holders, in order to achieve maximal reproducibility. Maximal force to fracture was determined.\nOverall comparison among groups was performed using one-way ANOVA for one-way classified data (BMD). For individual comparisons among groups, post-hoc analysis was performed using Fisher's least significant difference test. Differences were considered significant at the 5% level. All data are presented as mean±SEM."}}, "note": "Bridge positions count the residues as written; N and C are the ends. Square brackets hold non-standard residues; d marks the D form. Peptide text beside a SMILES is read from it. I, II: the chains in the order shown. hArg = N=C(N)NCCCC[C@H](N)C(=O)O; Ac5c = NC1(C(=O)O)CCCC1; Aib = CC(C)(N)C(=O)O", "data": [{"smiles": "CC[C@H](C)[C@H](NC(=O)[C@H](CCC(=O)O)NC(=O)C(C)(C)NC(=O)[C@@H](NC(=O)C1(N)CCCC1)C(C)C)C(=O)N[C@@H](CCC(N)=O)C(=O)N[C@@H](CC(C)C)C(=O)N[C@@H](CC(C)C)C(=O)N[C@@H](Cc1c[nH]cn1)C(=O)N[C@@H](CCC(N)=O)C(=O)N[C@@H](CCCCNC(=N)N)C(=O)N[C@@H](C)C(=O)N[C@H]1CCCCNC(=O)C[C@@H](C(N)=O)NC(=O)[C@H](CC(N)=O)NC(=O)[C@H](CC(C)C)NC(=O)[C@H](Cc2c[nH]c3ccccc23)NC1=O", "note": "[SEQ ID NO: 19, H-Ac5c-Val-Aib-Glu-Ile-Gln-Leu-Leu-His-Gln-Har-Ala-Lys( )-Trp-Leu-Asn-Asp( )-NH2] (H-[Ac5c]V[Aib]EIQLLHQ[hArg]AKWLND-NH2; lactam 13-17)", "values": [{"measurement": "EC50", "setting": "Saos-2 PTH1R; cAMP, 100 μM IBMX, 37° C. 15 min, suffix of label = salt tested", "value": 10.2, "unit": "nM"}, {"measurement": "Emax ± SEM", "setting": "Saos-2 PTH1R", "value": "1.05 ± 0.04"}, {"measurement": "bone strength of the femoral head in a compression test", "setting": "ovariectomized (OVX) rat", "value": "higher than in vehicle-treated OVX and sham animals at all doses"}, {"measurement": "bone strength of the femur in a three-point bending test versus vehicle-treated OVX animals", "setting": "ovariectomized (OVX) rat; FIG. 11", "value": "higher than in vehicle-treated OVX animals at all doses"}, {"measurement": "bone strength of the femur in a three-point bending test versus vehicle-treated sham animals", "setting": "ovariectomized (OVX) rat; FIG. 11, doses higher than 20 nmol/kg/d", "value": "increased strength compared to vehicle-treated sham animals"}, {"measurement": "bone strength of the femur, shaft region and femoral head region, versus vehicle-treated OVX-group", "setting": "ovariectomized (OVX) rat", "value": "significantly increased"}, {"measurement": "bone strength versus vehicle-treated sham-operated group", "setting": "ovariectomized (OVX) rat; doses greater than 20 nmol/kg/d", "value": "significantly increased"}]}, {"smiles": "CC[C@H](C)[C@H](NC(=O)[C@H](CCC(=O)O)NC(=O)C(C)(C)NC(=O)[C@@H](NC(=O)C1(N)CCCC1)C(C)C)C(=O)N[C@@H](CCC(N)=O)C(=O)N[C@@H](CC(C)C)C(=O)N[C@@H](CCSC)C(=O)N[C@@H](Cc1c[nH]cn1)C(=O)N[C@@H](CCC(N)=O)C(=O)N[C@@H](CCCCNC(=N)N)C(=O)N[C@@H](C)C(=O)N[C@H]1CCCCNC(=O)C[C@@H](C(N)=O)NC(=O)[C@H](CC(C)C)NC(=O)[C@H](Cc2c[nH]c3ccccc23)NC(=O)[C@@H](NC(=O)[C@H](C)NC(=O)[C@H](CCCCNC(=N)N)NC(=O)[C@H](CCC(N)=O)NC(=O)[C@H](Cc2c[nH]cn2)NC(=O)[C@H](CCSC)NC(=O)[C@H](CC(C)C)NC(=O)[C@H](CCC(N)=O)NC(=O)[C@@H](NC(=O)[C@H](CCC(=O)O)NC(=O)C(C)(C)NC(=O)[C@@H](NC(=O)C2(N)CCCC2)C(C)C)[C@@H](C)CC)CCCCNC(=O)C[C@@H](C(N)=O)NC(=O)[C@H](CC(C)C)NC(=O)[C@H](Cc2c[nH]c3ccccc23)NC1=O", "note": "[SEQ ID NO: 33, (H-Ac5c-Val-Aib-Glu-Ile-Gln-Leu-Met-His-Gln-Har-Ala-Lys( )-Trp-Leu-Asp( )-NH2)2] (I: H-[Ac5c]V[Aib]EIQLMHQ[hArg]AKWLD-NH2 / II: H-[Ac5c]V[Aib]EIQLMHQ[hArg]AKWLD-NH2; amide I:13-II:16, I:16-II:13 (inferred))", "values": [{"measurement": "Emax ± SEM", "setting": "Saos-2 PTH1R", "value": "1.10 ± 0.04"}, {"measurement": "bone strength compared to vehicle-treated OVX-group", "setting": "ovariectomized (OVX) rat; 5 nmol/kg/d", "value": "significantly increased"}, {"measurement": "bone strength of the femoral head in a compression test", "setting": "ovariectomized (OVX) rat", "value": "higher than in vehicle-treated OVX and sham animals at all doses"}, {"measurement": "bone strength of the femur in a three-point bending test versus vehicle-treated OVX animals", "setting": "ovariectomized (OVX) rat; FIG. 11", "value": "higher than in vehicle-treated OVX animals at all doses"}, {"measurement": "bone strength of the femur, shaft region and femoral head region, versus vehicle-treated OVX-group", "setting": "ovariectomized (OVX) rat", "value": "significantly increased"}]}]}
